# Columns and labels:
# [1] = Cytotoxicity against C57BL/6 mouse BV-2 cells assessed as survival rate at 30 uM incubated for 24 hrs by MTT assay relative to control; type: toxicity, cell-based; conditions: read-out: Survival
# BV-2 = test: Anti-neuroinflammatory activity against LPS-stimulated C57BL/6 mouse BV-2 cells assessed as inhibition of NO release at 30 uM preincubated with compound for 4 hrs followed by LPS addition and measured after 24 hrs by Griess reagent based assay relative to control; type: functional; conditions: C57BL/6, BV-2, time 28 hrs
SMILES,"viability at 24 h, 30 µM [1] [%]",inhibition at 30 µM (BV-2) [%]
CCOc1ccc(C(=O)Nc2ccccc2C(=O)O[C@@]23CC[C@H](OC)[C@]45C([C@@H](C[C@H]24)[C@@]2(O)C[C@H](OC)[C@H]4C[C@@H]5[C@]2(O)[C@H]4OC)N(CC)C3)cc1,101,53.6
CCN1C[C@]2(OC(=O)c3ccccc3NC(=O)c3ccccc3N(C)C)CC[C@H](OC)[C@]34C1[C@@H](C[C@H]23)[C@@]1(O)C[C@H](OC)[C@H]2C[C@@H]4[C@]1(O)[C@H]2OC,101,34.7
CCN1C[C@]2(OC(=O)c3ccccc3NC(=O)S(=O)(=O)c3cc(Cl)ccc3OC)CC[C@H](OC)[C@]34C1[C@@H](C[C@H]23)[C@@]1(O)C[C@H](OC)[C@H]2C[C@@H]4[C@]1(O)[C@H]2OC,94.9,6
CCN1C[C@]2(OC(=O)c3ccccc3NC(=O)S(=O)(=O)c3ccc(F)cc3)CC[C@H](OC)[C@]34C1[C@@H](C[C@H]23)[C@@]1(O)C[C@H](OC)[C@H]2C[C@@H]4[C@]1(O)[C@H]2OC,109,40.6
O=C(Nc1ccccc1C(=O)O)c1ccc(Cl)s1,98.7,32.4
CCN1C[C@]2(OC(=O)c3ccccc3NC(=O)S(C)(=O)=O)CC[C@H](OC)[C@]34C1[C@@H](C[C@H]23)[C@@]1(O)C[C@H](OC)[C@H]2C[C@@H]4[C@]1(O)[C@H]2OC,102,5.1
CCN1C[C@]2(OC(=O)c3ccccc3NC(=O)c3cccc(C)c3)CC[C@H](OC)[C@]34C1[C@@H](C[C@H]23)[C@@]1(O)C[C@H](OC)[C@H]2C[C@@H]4[C@]1(O)[C@H]2OC,112,15.6
CCN1C[C@]2(COC)CC[C@H](OC)[C@]34C1[C@@H](C[C@H]23)[C@@]1(O)C[C@H](OC)[C@H]2C[C@@H]4[C@]1(O)[C@H]2OC(=O)c1ccccc1N,101,19.4
CCCCOC(=O)c1ccccc1NC(=O)c1ccc(Cl)s1,110,42.8
CCN1C[C@]2(OC(=O)c3ccccc3NC(=O)S(=O)(=O)c3ccc(Br)cc3)CC[C@H](OC)[C@]34C1[C@@H](C[C@H]23)[C@@]1(O)C[C@H](OC)[C@H]2C[C@@H]4[C@]1(O)[C@H]2OC,109,40.8
CCN1C[C@]2(OC(=O)c3ccccc3NC(=O)S(=O)(=O)c3cccs3)CC[C@H](OC)[C@]34C1[C@@H](C[C@H]23)[C@@]1(O)C[C@H](OC)[C@H]2C[C@@H]4[C@]1(O)[C@H]2OC,105,55.9
CCN1C[C@]2(OC(=O)c3ccccc3NC(=O)S(=O)(=O)c3cccc(C)c3)CC[C@H](OC)[C@]34C1[C@@H](C[C@H]23)[C@@]1(O)C[C@H](OC)[C@H]2C[C@@H]4[C@]1(O)[C@H]2OC,106,46.5
CCN1C[C@]2(OC(=O)c3ccccc3NC(=O)S(=O)(=O)c3ccc(C#N)cc3Cl)CC[C@H](OC)[C@]34C1[C@@H](C[C@H]23)[C@@]1(O)C[C@H](OC)[C@H]2C[C@@H]4[C@]1(O)[C@H]2OC,99.4,12.5
CCN1C[C@]2(OC(=O)c3ccccc3NC(=O)c3cccc(Cl)c3)CC[C@H](OC)[C@]34C1[C@@H](C[C@H]23)[C@@]1(O)C[C@H](OC)[C@H]2C[C@@H]4[C@]1(O)[C@H]2OC,104,12.9
CCN1C[C@]2(OC(=O)c3ccccc3NC(=O)S(=O)(=O)c3ccc(-c4ccccc4)cc3)CC[C@H](OC)[C@]34C1[C@@H](C[C@H]23)[C@@]1(O)C[C@H](OC)[C@H]2C[C@@H]4[C@]1(O)[C@H]2OC,102,41.9
CCN1C[C@]2(OC(=O)c3ccccc3NC(=O)S(=O)(=O)Cc3ccc([N+](=O)[O-])cc3)CC[C@H](OC)[C@]34C1[C@@H](C[C@H]23)[C@@]1(O)C[C@H](OC)[C@H]2C[C@@H]4[C@]1(O)[C@H]2OC,98.9,22.7
CCN1C[C@]2(OC(=O)c3ccccc3NC(=O)CCc3ccccc3)CC[C@H](OC)[C@]34C1[C@@H](C[C@H]23)[C@@]1(O)C[C@H](OC)[C@H]2C[C@@H]4[C@]1(O)[C@H]2OC,108,16.6
CCO/C=C/C(=O)Nc1ccccc1C(=O)O[C@@]12CC[C@H](OC)[C@]34C([C@@H](C[C@H]13)[C@@]1(O)C[C@H](OC)[C@H]3C[C@@H]4[C@]1(O)[C@H]3OC)N(CC)C2,110,28.7
CCN1C[C@]2(OC(=O)c3ccccc3NC(=O)S(=O)(=O)c3ccc(OCc4ccccc4)cc3)CC[C@H](OC)[C@]34C1[C@@H](C[C@H]23)[C@@]1(O)C[C@H](OC)[C@H]2C[C@@H]4[C@]1(O)[C@H]2OC,102,21.3

SMILES,"viability at 24 h, 30 µM [1] [%]",inhibition at 30 µM (BV-2) [%]
CCN1C[C@]2(OC(=O)c3ccccc3NC(=O)S(=O)(=O)c3ccccc3[N+](=O)[O-])CC[C@H](OC)[C@]34C1[C@@H](C[C@H]23)[C@@]1(O)C[C@H](OC)[C@H]2C[C@@H]4[C@]1(O)[C@H]2OC,104,20.5
CCN1C[C@]2(OC(=O)c3ccccc3NC(=O)c3ccccc3)CC[C@H](OC)[C@]34C1[C@@H](C[C@H]23)[C@@]1(O)C[C@H](OC)[C@H]2C[C@@H]4[C@]1(O)[C@H]2OC,107,36
CCN1C[C@]2(OC(=O)c3ccccc3NC(=O)S(=O)(=O)c3cccc(C#N)c3)CC[C@H](OC)[C@]34C1[C@@H](C[C@H]23)[C@@]1(O)C[C@H](OC)[C@H]2C[C@@H]4[C@]1(O)[C@H]2OC,108,7.4
CCN1C[C@]2(OC(=O)c3ccccc3NC(=O)S(=O)(=O)c3cc(Br)c(Cl)s3)CC[C@H](OC)[C@]34C1[C@@H](C[C@H]23)[C@@]1(O)C[C@H](OC)[C@H]2C[C@@H]4[C@]1(O)[C@H]2OC,94.3,29.4
CCCCOC(=O)c1ccccc1NS(=O)(=O)c1cccc(F)c1,106,50.9
CCN1C[C@]2(OC(=O)c3ccccc3NC(=O)c3cccc(C#N)c3)CC[C@H](OC)[C@]34C1[C@@H](C[C@H]23)[C@@]1(O)C[C@H](OC)[C@H]2C[C@@H]4[C@]1(O)[C@H]2OC,101,12.8
CCN1C[C@]2(OC(=O)c3ccccc3NC(=O)C3CCCCC3)CC[C@H](OC)[C@]34C1[C@@H](C[C@H]23)[C@@]1(O)C[C@H](OC)[C@H]2C[C@@H]4[C@]1(O)[C@H]2OC,105,44.5
CCN1C[C@]2(OC(=O)c3ccccc3NC(=O)S(=O)(=O)c3ccc(OC)cc3)CC[C@H](OC)[C@]34C1[C@@H](C[C@H]23)[C@@]1(O)C[C@H](OC)[C@H]2C[C@@H]4[C@]1(O)[C@H]2OC,92.4,10.8
CCN1C[C@]2(OC(=O)c3ccccc3NC(=O)S(=O)(=O)c3ccc(NC(C)=O)cc3)CC[C@H](OC)[C@]34C1[C@@H](C[C@H]23)[C@@]1(O)C[C@H](OC)[C@H]2C[C@@H]4[C@]1(O)[C@H]2OC,104,10.4
CCN1C[C@]2(OC(=O)c3ccccc3NC(=O)S(=O)(=O)c3ccc4c(c3)CCC4)CC[C@H](OC)[C@]34C1[C@@H](C[C@H]23)[C@@]1(O)C[C@H](OC)[C@H]2C[C@@H]4[C@]1(O)[C@H]2OC,94.4,18.1
CCN1C[C@]2(OC(=O)c3ccccc3NC(=O)S(=O)(=O)c3ccc(Cl)cc3)CC[C@H](OC)[C@]34C1[C@@H](C[C@H]23)[C@@]1(O)C[C@H](OC)[C@H]2C[C@@H]4[C@]1(O)[C@H]2OC,100,39.2
CCCCC(CC)C(=O)Nc1ccccc1C(=O)O[C@@]12CC[C@H](OC)[C@]34C([C@@H](C[C@H]13)[C@@]1(O)C[C@H](OC)[C@H]3C[C@@H]4[C@]1(O)[C@H]3OC)N(CC)C2 (stereo partly specified),95.9,38.2
CCN1C[C@]2(OC(=O)c3ccccc3NC(=O)S(=O)(=O)c3ccccc3C#N)CC[C@H](OC)[C@]34C1[C@@H](C[C@H]23)[C@@]1(O)C[C@H](OC)[C@H]2C[C@@H]4[C@]1(O)[C@H]2OC,101,27.5
CCN1C[C@]2(O)CC[C@H](OC)[C@]34C1[C@@H](C[C@H]23)[C@@]1(O)C[C@H](OC)[C@H]2C[C@@H]4[C@]1(O)[C@H]2OC,97.4,8.8
CCN1C[C@]2(OC(=O)c3ccccc3NC(=O)c3ccc(C#N)cc3)CC[C@H](OC)[C@]34C1[C@@H](C[C@H]23)[C@@]1(O)C[C@H](OC)[C@H]2C[C@@H]4[C@]1(O)[C@H]2OC,99.5,6.6
CCN1C[C@]2(OC(=O)c3ccccc3NC(=O)S(=O)(=O)c3ccccc3Cl)CC[C@H](OC)[C@]34C1[C@@H](C[C@H]23)[C@@]1(O)C[C@H](OC)[C@H]2C[C@@H]4[C@]1(O)[C@H]2OC,100,7.8
CCN1C[C@]2(OC(=O)c3ccccc3NC(=O)S(=O)(=O)c3ccc(Cl)nc3)CC[C@H](OC)[C@]34C1[C@@H](C[C@H]23)[C@@]1(O)C[C@H](OC)[C@H]2C[C@@H]4[C@]1(O)[C@H]2OC,104,33.5
CCN1C[C@]2(OC(=O)c3ccccc3NC(C)=O)CC[C@H](OC)[C@]34C1[C@@H](C[C@H]23)[C@@]1(O)C[C@H](OC)[C@H]2C[C@@H]4[C@]1(O)[C@H]2OC,98.2,25.1
CCCCOC(=O)c1ccccc1NC(=O)c1ccc(CC)cc1,103,30.4

# Source: ChEMBL document CHEMBL6078668, “Synthesis and biological evaluation of lappaconitine analogues as potential anti-neuroinflammatory agents by side chain modification and scaffold hopping strategy” (Bioorg Med Chem, 2025)
